Results reported in patent US12673055B2, “Treatment of atopic dermatitis with tradipitant” (Vanda Pharmaceuticals Inc., priority 2020, dated 2026).

Tested on: atopic dermatitis (AD) patients with severe pruritus
Assay: EPIONE randomized, placebo-controlled phase III study
Assay type: in vivo, human
Set-up: key to WI-NRS Adjusting for IGA Severity / WI-NRS (change) / Diary WI-NRS: change from baseline in WI-NRS itch score
Experimental: A randomized, placebo-controlled phase III study is conducted in atopic dermatitis (AD) patients with severe pruritus with a range of disease severity presentation from mild (23%) to moderate (64%) and severe (13%) as determined by the Investigator's Global Assessment scale (IGA). In the study, patients (n=341) are randomized 1:1 to receive either tradipitant or placebo for a treatment period of eight (8) weeks. Patients in the tradipitant arm of the study are dosed with 85 mg tradipitant twice daily (bid). Patients are assessed at baseline and post-randomization with a number of symptomatic and disease severity scales at regular intervals.
A significant interaction is observed between baseline disease severity and treatment (p=0.0004), where disease severity is measured by Investigator's Global Assessment (IGA) on a scale of 1-4.
Similar effects are seen throughout the treatment periods at all post-randomization visits comprising weeks 2, 4, 6 and 8 (Table 1).

[1] = mild AD (n = 79), 85 mg bid, Week 8

SMILES: O=C(c1ccccc1Cl)c1cccnc1-c1nnn(Cc2cc(C(F)(F)F)cc(C(F)(F)F)c2)c1-c1ccncc1 [Tradipitant]
- WI-NRS (change) (IGA 1, 2 (mild AD, n = 79), Tradipitant n = 40, 85 mg bid, Week 2): −2.59
- WI-NRS (change) (IGA 1, 2 (mild AD, n = 79), Tradipitant n = 40, 85 mg bid, Week 4): −3.39
- WI-NRS (change) (IGA 1, 2 (mild AD, n = 79), Tradipitant n = 40, 85 mg bid, Week 6): −4.18
- WI-NRS (change) (IGA 1, 2 (mild AD, n = 79), Tradipitant n = 40, 85 mg bid, Week 8): −4.74
- Diary WI-NRS (IGA 1, 2 (n = 79), 85 mg bid, Week 2): −1.54
- Diary WI-NRS (IGA 1, 2 (n = 79), 85 mg bid, Week 4): −2.78
- Diary WI-NRS (IGA 1, 2 (n = 79), 85 mg bid, Week 6): −3.48
- Diary WI-NRS (IGA 1, 2 (n = 79), 85 mg bid, Week 8): −4.23
- Diary WI-NRS Diff (tradipitant vs placebo) (IGA 1, 2 (n = 79), Week 2): 1.18
- WI-NRS Diff (tradipitant vs placebo) (IGA 1, 2 (n = 79), Week 2): 1.61
- Diary WI-NRS Diff (tradipitant vs placebo) (IGA 1, 2 (n = 79), Week 4): 1.71
- WI-NRS Diff (tradipitant vs placebo) (IGA 1, 2 (n = 79), Week 4): 1.92
- Diary WI-NRS Diff (tradipitant vs placebo) (IGA 1, 2 (n = 79), Week 6): 1.76
- WI-NRS Diff (tradipitant vs placebo) (IGA 1, 2 (n = 79), Week 6): 1.86
- Diary WI-NRS Diff (tradipitant vs placebo) (IGA 1, 2 (n = 79), Week 8): 2.09
- WI-NRS Diff (tradipitant vs placebo) (IGA 1, 2 (n = 79), Week 8): 1.60
- WI-NRS Adjusting for IGA Severity (ITT (n = 341), 85 mg bid, Week 2): −2.43
- WI-NRS Adjusting for IGA Severity (ITT (n = 341), 85 mg bid, Week 4): −3.34
- WI-NRS Adjusting for IGA Severity (ITT (n = 341), 85 mg bid, Week 6): −3.75
- WI-NRS Adjusting for IGA Severity (ITT (n = 341), 85 mg bid, Week 8): −4.36
- WI-NRS (change) (ITT (n = 341), Tradipitant n = 171, 85 mg bid, Week 2): −1.68
- WI-NRS (change) (ITT (n = 341), Tradipitant n = 171, 85 mg bid, Week 4): −2.58
- WI-NRS (change) (ITT (n = 341), Tradipitant n = 171, 85 mg bid, Week 6): −3.00
- WI-NRS (change) (ITT (n = 341), Tradipitant n = 171, 85 mg bid, Week 8): −3.61
- WI-NRS Adjusting for IGA Severity, Diff (tradipitant vs placebo) (ITT (n = 341), Week 2): 1.14
- WI-NRS Diff (tradipitant vs placebo) (ITT (n = 341), Week 2): 0.23
- WI-NRS Adjusting for IGA Severity, Diff (tradipitant vs placebo) (ITT (n = 341), Week 4): 1.29
- WI-NRS Diff (tradipitant vs placebo) (ITT (n = 341), Week 4): 0.39
- WI-NRS Adjusting for IGA Severity, Diff (tradipitant vs placebo) (ITT (n = 341), Week 6): 1.01
- WI-NRS Diff (tradipitant vs placebo) (ITT (n = 341), Week 6): 0.11
- WI-NRS Adjusting for IGA Severity, Diff (tradipitant vs placebo) (ITT (n = 341), Week 8): 1.08
- WI-NRS Diff (tradipitant vs placebo) (ITT (n = 341), Week 8): 0.18
- magnitude of improvement in pruritus (WI-NRS) compared with placebo (full population, week 8, difference not statistically significant): greater than that of placebo
- improvement in WI-NRS compared to placebo, accounting for baseline disease severity and treatment interaction (full trial population, week 8, p=0.0217): significantly larger improvement
- safety profile (in vivo): relatively safe profile
- WI-NRS over placebo in the mild AD group (mild AD (IGA 1, 2), every visit): significantly improves WI-NRS over placebo at every visit
- Responder Analysis: IGA 0 or 1 [1]: 60.0%
- Responder Analysis: SCORAD 50% Improvement [1]: 55.0%
- Responder Analysis: IGA 0 or 1, Diff (tradipitant vs placebo) (mild AD (n = 79), Week 8): 21.5%
- Responder Analysis: SCORAD 50% Improvement, Diff (tradipitant vs placebo) (mild AD (n = 79), Week 8): 24.2%
- Responder Analysis: WI-NRS ≥4 Improvement, Diff (tradipitant vs placebo) (mild AD (n = 79), Week 8): 39.2%
- time course of response: onset of antipruritic effect (mild AD patients, daily diary): immediately after the first full day of tradipitant dosing
- Responder Analysis: WI-NRS ≥4 Improvement (mild AD, IGA 1, 2 (n = 79), 85 mg bid, Week 8): 72.5%
